US10752604B2, “C-glucoside derivative containing fused phenyl ring or pharmaceutically acceptable salt thereof, process for preparing same, and pharmaceutical composition comprising same” (Je II Pharmaceutical Co., Ltd., priority 2016, dated 2020)

Experiments:
[1] = target: human SGLT1 (Homo sapiens (Human), UniProt P13866); assay: Inhibitory effect on human SGLT1 activity (14C-AMG uptake in CHO cells expressing hSGLT1); assay type: cell-based; conditions: 14C-AMG transport, CHO cells expressing hSGLT1, 2 hours
Excerpt: (§1) Human SGLT1 (hSGLT1), human SGLT2 (hSGLT2) genes were amplified from a human marathon-ready cDNA library (Clontech)) by means of an PCR method, after which resulting amplified sequences were combined with a pcDNA 3.1(+) vector, which was a mammalian expression vector, so as to prepare recombinant expression vectors pcDNA3.1(+)/hSGLT1, pcDNA3.1(+)/hSGLT2. Resulting recombinant expression vectors were transformed into Chinese Hamster Ovarian cells, after which stably transformed clones were selected by means of a colony picking method by using a resistance to G418, a selective marker included in the vector. Out of selected clones, clones for expressing hSGLT1 and hSGLT2 were selected based on activity in analysis of ^14C-α-methyl-D-glucopyranoside (^14C-AMG) transport.
To analyze a sodium-dependent glucose transport, cells for expressing hSGLT1 and hSGLT2 were seeded at 1×10^5 cells per well into a 96-well culture plate, after which resulting cells were cultured in an RPMI 1640 medium containing 10% fetal bovine serum (FBS). In 1 day after culture, the resulting cells were cultured in a pre-treatment buffer solution (10 mM HEPES, 5 mM tris, 140 mM choline chloride, 2 mM KCl, 1 mM CaCl2 and 1 mM MgCl2, pH 7.4) under 37° C./5% CO2 conditions for 10 minutes. Then, the resulting cells were cultured in a uptake buffer solution (10 mM HEPES, 5 mM tris, 140 mM NaCl, 2 mM KCl, 1 mM CaCl2, 1 mM MgCl2 and 1 mM AMGS pH 7.4) containing 14C-AMG (8 μM) and a compound of the present disclosure or a dimethyl sulfoxide (DMSO) vehicle under 37° C./5% CO2 conditions for 2 hours. After culture, the cells were washed twice with a washing buffer solution (a pre-treatment buffer solution containing 10 mM AMG at room temperature), after which a radiation thereof was measured by using a liquid scintillation counter. IC50 of each compound was measured according to a non-linear regression analysis by using SigmaPlot (Document Analytical Biochemistry 429: 70-75, Molecular and Cellular Biochemistry 280: 91-98, 2005). SGLT1/2 in-vitro assay results are shown in a following Table 1.

[2] = target: human SGLT2 (Homo sapiens (Human), UniProt P31639); assay: Inhibitory effect on human SGLT2 activity (14C-AMG uptake in CHO cells expressing hSGLT2); assay type: cell-based; conditions: 14C-AMG transport, CHO cells expressing hSGLT2, 2 hours
Excerpt: as §1
In 1 day after culture, the resulting cells were cultured in a pre-treatment buffer solution (10 mM HEPES, 5 mM tris, 140 mM choline chloride, 2 mM KCl, 1 mM CaCl2 and 1 mM MgCl2, pH 7.4) under 37° C./5% CO2 conditions for 10 minutes. Then, the resulting cells were cultured in a uptake buffer solution (10 mM HEPES, 5 mM tris, 140 mM NaCl, 2 mM KCl, 1 mM CaCl2, 1 mM MgCl2 and 1 mM AMGS pH 7.4) containing 14C-AMG (8 μM) and a compound of the present disclosure or a dimethyl sulfoxide (DMSO) vehicle under 37° C./5% CO2 conditions for 2 hours. After culture, the cells were washed twice with a washing buffer solution (a pre-treatment buffer solution containing 10 mM AMG at room temperature), after which a radiation thereof was measured by using a liquid scintillation counter.

human SGLT1, sequence (P13866 whole entry): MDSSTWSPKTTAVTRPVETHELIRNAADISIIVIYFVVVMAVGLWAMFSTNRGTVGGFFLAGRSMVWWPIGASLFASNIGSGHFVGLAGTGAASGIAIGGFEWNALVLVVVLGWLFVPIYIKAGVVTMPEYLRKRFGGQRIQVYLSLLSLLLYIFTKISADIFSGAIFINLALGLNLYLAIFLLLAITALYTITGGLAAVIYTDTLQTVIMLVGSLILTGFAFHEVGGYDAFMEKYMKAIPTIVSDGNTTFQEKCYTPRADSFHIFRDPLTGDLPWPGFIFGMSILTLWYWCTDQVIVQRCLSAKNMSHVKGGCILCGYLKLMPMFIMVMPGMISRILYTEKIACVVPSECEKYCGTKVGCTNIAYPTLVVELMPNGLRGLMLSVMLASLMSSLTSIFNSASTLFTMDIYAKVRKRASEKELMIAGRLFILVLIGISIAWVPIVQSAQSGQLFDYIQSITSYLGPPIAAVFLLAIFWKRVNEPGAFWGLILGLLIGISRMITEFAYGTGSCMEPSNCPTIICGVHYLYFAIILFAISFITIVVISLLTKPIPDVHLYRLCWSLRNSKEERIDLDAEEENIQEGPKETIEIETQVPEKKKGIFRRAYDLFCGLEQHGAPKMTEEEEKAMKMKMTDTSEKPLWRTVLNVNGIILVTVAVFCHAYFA
human SGLT2, sequence (P31639 whole entry): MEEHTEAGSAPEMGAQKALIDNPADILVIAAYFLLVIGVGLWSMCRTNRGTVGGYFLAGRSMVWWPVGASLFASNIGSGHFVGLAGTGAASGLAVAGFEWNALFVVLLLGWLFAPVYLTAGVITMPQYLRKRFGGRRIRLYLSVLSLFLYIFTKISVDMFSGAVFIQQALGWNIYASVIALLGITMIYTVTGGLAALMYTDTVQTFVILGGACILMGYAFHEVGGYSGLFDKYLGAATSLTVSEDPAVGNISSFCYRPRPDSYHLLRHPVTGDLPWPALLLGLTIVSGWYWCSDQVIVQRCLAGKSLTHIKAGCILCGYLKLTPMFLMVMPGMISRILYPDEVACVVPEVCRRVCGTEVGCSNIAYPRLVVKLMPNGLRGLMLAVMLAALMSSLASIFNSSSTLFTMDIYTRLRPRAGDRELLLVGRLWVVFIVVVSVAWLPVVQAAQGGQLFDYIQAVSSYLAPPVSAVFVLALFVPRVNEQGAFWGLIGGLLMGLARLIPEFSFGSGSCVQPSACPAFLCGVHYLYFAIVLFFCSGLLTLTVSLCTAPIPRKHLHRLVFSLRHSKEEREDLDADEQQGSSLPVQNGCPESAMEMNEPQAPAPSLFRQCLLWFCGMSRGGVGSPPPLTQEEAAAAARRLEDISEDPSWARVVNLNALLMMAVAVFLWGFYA

SMILES | IC50 [1] | IC50 [2]
Cc1c([C@@H]2O[C@H](CO)C(O)[C@H](O)C2O)cc(Cc2ccc(OC(C)C)cc2)c2c1CCC2 (stereo in doubt) [Example 3, (2R,3S,4R,5R,6S)-2-(hydroxymethyl)-6-(7-(4-isopropoxybenzyl)-4-methyl-2,3-dihydro-1H-indene-5-yl)tetrahydro-2H-pyran-3,4,5-triol] | 142 nM | –
CCc1ccc(Cc2cc([C@@H]3O[C@H](CO)C(O)[C@H](O)C3O)c(C)c3c2CCC3)cc1 (stereo in doubt) [Example 5, (2S,3R,4R,5S,6R)-2-(7-(4-ethylbenzyl)-4-methyl-2,3-dihydro-1H-indene-5-yl)-6-(hydroxymethyl)tetrahydro-2H-pyran-3,4,5-triol] | 40 nM | 2.8 nM
CCCc1ccc(Cc2cc([C@@H]3O[C@H](CO)C(O)[C@H](O)C3O)c(C)c3c2CCC3)cc1 (stereo in doubt) [Example 6, (2R,3S,4R,5R,6S)-2-(hydroxymethyl)-6-(4-methyl-7-(4-propylbenzyl)-2,3-dihydro-1H-indene-5-yl)tetrahydro-2H-pyran-3,4,5-triol] | 190 nM | –
Cc1c(C2O[C@H](CO)C(O)[C@H](O)C2O)cc(Cc2ccc(C(C)C)cc2)c2c1CCC2 (stereo in doubt) [Example 7, (2R,3S,4R,5R,6S)-2-(hydroxymethyl)-6-(7-(4-isopropylbenzyl)-4-methyl-2,3-dihydro-1H-indene-5-yl)tetrahydro-2H-pyran-3,4,5-triol] | 296 nM | –
Cc1ccc([C@@H]2O[C@H](CO)[C@@H](O)[C@H](O)[C@H]2O)cc1Cc1ccc(-c2ccc(F)cc2)s1 [Canagliflozin, reference compound] | 550 nM | 4.9 nM
COc1ccc(Cc2cc([C@@H]3O[C@H](CO)[C@@H](O)[C@H](O)[C@H]3O)c(C)c3c2CCC3)cc1 [Example 1, (2R,3S,4R,5R,6S)-2-(hydroxymethyl)-6-(7-(4-methoxybenzyl)-4-methyl-2,3-dihydro-1H-indene-5-yl)tetrahydro-2H-pyran-3,4,5-triol] | 9.1 nM | 1.3 nM
CCOc1ccc(Cc2cc([C@@H]3O[C@H](CO)[C@@H](O)[C@H](O)[C@H]3O)c(C)c3c2CCC3)cc1 [Example 2, (2S,3R,4R,5S,6R)-2-(7-(4-ethoxybenzyl)-4-methyl-2,3-dihydro-1H-indene-5-yl)-6-(hydroxymethyl)tetrahydro-2H-pyran-3,4,5-triol] | 76 nM | 3 nM
CSc1ccc(Cc2cc([C@@H]3O[C@H](CO)[C@@H](O)[C@H](O)[C@H]3O)c(C)c3c2CCC3)cc1 [Example 13] | 15 nM | 1.2 nM
Cc1c([C@@H]2O[C@H](CO)[C@@H](O)[C@H](O)[C@H]2O)cc(Cc2ccc(Cl)cc2)c2c1CCC2 [Example 16, (2S,3R,4R,5S,6R)-2-(7-(4-chlorobenzyl)-4-methyl-2,3-dihydro-1H-indene-5-yl)-6-(hydroxymethyl)tetrahydro-2H-pyran-3,4,5-triol] | 14.3 nM | –
C=Cc1ccc(Cc2cc([C@@H]3O[C@H](CO)[C@@H](O)[C@H](O)[C@H]3O)c(C)c3c2OCC3)cc1 [Example 34, (2R,3S,4R,5R,6S)-2-(hydroxymethyl)-6-(4-methyl-7-(4-vinylbenzyl)-2,3-dihydrobenzofuran-5-yl)tetrahydro-2H-pyran-3,4,5-triol] | 295 nM | –
CCc1c([C@@H]2O[C@H](CO)[C@@H](O)[C@H](O)[C@H]2O)cc(Cc2ccc(C)cc2)c2c1CCC2 [Example 41, (2S,3R,4R,5S,6R)-2-(4-ethyl-7-(4-methylbenzyl)-2,3-dihydro-1H-indene-5-yl)-6-(hydroxymethyl)tetrahydro-2H-pyran-3,4,5-triol] | 41.8 nM | 3.68 nM
CCc1c([C@@H]2O[C@H](CO)[C@@H](O)[C@H](O)[C@H]2O)cc(Cc2ccc(OC)cc2)c2c1CCC2 [Example 42, (2S,3R,4R,5S,6R)-2-(4-ethyl-7-(4-methoxybenzyl)-2,3-dihydro-1H-indene-5-yl)-6-(hydroxymethyl)tetrahydro-2H-pyran-3,4,5-triol] | 60.5 nM | 2.73 nM
CCCc1c([C@@H]2O[C@H](CO)[C@@H](O)[C@H](O)[C@H]2O)cc(Cc2ccc(OC)cc2)c2c1CCC2 [Example 52, (2R,3S,4R,5R,6S)-2-(hydroxymethyl)-6-(7-(4-methoxybenzyl)-4-propyl-2,3-dihydro-1H-indene-5-yl)tetrahydro-2H-pyran-3,4,5-triol] | 236 nM | 9.04 nM
CCCc1c([C@@H]2O[C@H](CO)[C@@H](O)[C@H](O)[C@H]2O)cc(Cc2ccc(C)cc2)c2c1CCC2 [Example 53, (2R,3S,4R,5R,6S)-2-(hydroxymethyl)-6-(7-(4-methylbenzyl)-4-propyl-2,3-dihydro-1H-indene-5-yl)tetrahydro-2H-pyran-3,4,5-triol] | 94.7 nM | 1.83 nM
CCCCc1c([C@@H]2O[C@H](CO)[C@@H](O)[C@H](O)[C@H]2O)cc(Cc2ccc(OC)cc2)c2c1CCC2 [Example 57, (2S,3R,4R,5S,6R)-2-(4-butyl-7-(4-methoxybenzyl)-2,3-dihydro-1H-indene-5-yl)-6-(hydroxymethyl)tetrahydro-2H-pyran-3,4,5-triol] | 373 nM | 5.86 nM
CCCCc1c([C@@H]2O[C@H](CO)[C@@H](O)[C@H](O)[C@H]2O)cc(Cc2ccc(C)cc2)c2c1CCC2 [Example 58, (2S,3R,4R,5S,6R)-2-(4-butyl-7-(4-methylbenzyl)-2,3-dihydro-1H-indene-5-yl)-6-(hydroxymethyl)tetrahydro-2H-pyran-3,4,5-triol] | 289 nM | 12.1 nM
COc1ccc(Cc2cc([C@@H]3O[C@H](CO)[C@@H](O)[C@H](O)[C@H]3O)c(C(C)C)c3c2CCC3)cc1 [Example 61, (2R,3S,4R,5R,6S)-2-(hydroxymethyl)-6-(4-isopropyl-7-(4-methoxybenzyl)-2,3-dihydro-1H-indene-5-yl)tetrahydro-2H-pyran-3,4,5-triol] | 199 nM | 2.04 nM
Cc1ccc(Cc2cc([C@@H]3O[C@H](CO)[C@@H](O)[C@H](O)[C@H]3O)c(CC(C)C)c3c2CCC3)cc1 [Example 64, (2R,3S,4R,5R,6S)-2-(hydroxymethyl)-6-(4-isobutyl-7-(4-methylbenzyl)-2,3-dihydro-1H-indene-5-yl)tetrahydro-2H-pyran-3,4,5-triol] | 518 nM | 19.1 nM
CCc1ccc(Cc2cc([C@@H]3O[C@H](CO)[C@@H](O)[C@H](O)[C@H]3O)c(CC(C)C)c3c2CCC3)cc1 [Example 65, (2S,3R,4R,5S,6R)-2-(7-(4-ethylbenzyl)-4-isobutyl-2,3-dihydro-1H-indene-5-yl)-6-(hydroxymethyl)tetrahydro-2H-pyran-3,4,5-triol] | 1610 nM | 38 nM
